Source: patent US11203608B2, “Platinum-containing compounds, and related compositions and uses thereof” (Massachusetts Institute of Technology, priority 2019, dated 2021)

Experiments:
[1] = system: PC3 human prostate adenocarcinoma; assay: Cell growth, resazurin assay, PC3; type: cell-based; conditions: 96-h exposure (table title)
Description: (§3) Cells were cultured in 10 mL of Advanced DMEM/F12 (ADMEM/F12), supplemented with 5% FBS, 2 mM GlutaMAX, and 1% Penicillin-Streptomycin in 10 cm tissue culture plates. Cells were then plated into 96-well plates with about 2.5×10^3 cells per well. Cells were plated with 200 μL per well of ADMEM/F12 supplemented with 5% FBS, 2 mM GlutaMAX, and 1% Penicillin-Streptomycin. Cells were treated with dose responses of doxorubicin, oxaliplatin, or doxaliplatin upon plating. The cells were then cultured for 72 hours following drug treatment, and cell growth was measured by resazurin assay.

[2] = system: APC−/−; KRASG12D/WT; P53−/− (AKP) organoids; assay: Viability of AKP murine colorectal cancer organoids; type: cell-based
Description: To generate 4. APC^−/−; KRAS^G12D/WT; P53^−/−; (AKP) and 5. APC^−/−; KRAS^G12D/WT; P53^−/−; MSH2^−/− (AKP-MSH2) colon cancer organoids, colonic crypts were isolated and colon organoids were generated from the following mouse genotypes on a C57Bl/6 background: 4. LSL-KRAS^G12D/WT; P53^fl/fl mice and 5. LSL-KRAS^G12D; P53^fl/fl; MSH2^fl/fl mice. Subsequently, the pSECC-APC plasmid (carrying Cre, Cas9, and sgAPC) was transfected into each of the above two genotypes of colon organoids. Following pSECC-APC transfection, Wnt/Rspo withdrawal was performed and surviving (APC^−/−) single organoids were cloned and PCR genotyped for Cre mediated deletion of p53 and/or MSH2, and for Cre mediated activation of oncogenic KRAS^G12D.
(§1) Twenty four hours after seeding the organoids, a media change was performed and dose responses of oxaliplatin, doxorubicin and doxaliplatin were added. […] Organoids were cultured in Advanced DMEM/F12 supplemented with 2 mM GlutaMAX, 1% Penicillin-Streptomycin, 2% B27, and Y-27632 (10 μM).

[3] = system: A549 human lung carcinoma; assay: Cell growth, resazurin assay, A549; type: cell-based; conditions: 96-h exposure (table title)
Description: as §3

[4] = system: A-tdt, AP-tdt, and AKP-tdt murine colorectal cancer organoids; assay: Cellular toxicity across the A-tdt, AP-tdt and AKP-tdt organoid series; type: cell-based; conditions: series of A-tdt
Description: (§2) Colonic crypts were isolated and colon organoids were generated from the following mouse genotypes on a C57Bl/6 background: 1. Rosa-LSL-TdTomato (hereafter LSL-tdt), 2. P53^f1/f1; LSL-tdt, and 3. LSL-KRAS^G12D/WT; P53^fl/fl; LSL-tdt mice. Subsequently, the pSECC-APC plasmid (carrying Cre, Cas9, and sgAPC) was transfected into each of the above three genotypes of colon organoids. This transfection strategy generated, in a single step, the following colorectal cancer organoids, including 1. APC^−/−; TdTomato^+ (A-tdt), 2. APC^−/−; P53^−/−; TdTomato^+ (AP-tdt), and 3. APC^−/−; KRAS^G12D/WT; P53^−/−; TdTomato^+ (AKP-tdt). Organoids of the desired genotype were selected for by Wnt/Rspo withdrawal for APC^−/−, Nutlin-3 addition for P53^−/−, and EGF withdrawal for KRAS^G12D.
Twenty four hours after seeding the organoids, a media change was performed and dose responses of oxaliplatin, doxorubicin and doxaliplatin were added. Forty eight hours after treatment, cell growth was evaluated by resazurin assay. Organoids were cultured in Advanced DMEM/F12 supplemented with 2 mM GlutaMAX, 1% Penicillin-Streptomycin, 2% B27, and Y-27632 (10 μM).

[5] = system: A2780 human ovarian cancer cell line
Description: ICP-MS was performed on an Agilent 7900 ICP-MS in helium mode.
The cells in a six-well plate were treated with oxaliplatin, doxaliplatin, or a mixture of doxorubicin and oxaliplatin at indicated concentration in 2 mL of Advanced DMEM/F12 (ADMEM/F12), supplemented with 5% FBS, 2 mM GlutaMAX, and 1% Penicillin-Streptomycin. After three hours, the media were removed. The cells were washed with xl PBS buffer containing EDTA (100 μM, 4 mL×2). To each well, MilliQ water (1.0 mL) was added. After 15 min, the cells were suspended. A portion of the resulting cell lysate (900 μL) was transferred to an Eppendorf tube. The samples were frozen in liquid nitrogen and thawed at room temperature. This procedure was repeated for three times. The insoluble lysate was pelleted (10000 rpm for 10 min). […] Pierce 660 nm Protein solution (200 μL) was added to each well. An aliquot of the lysate (14.2 μL) was added to each well. The plate was shaken and read on a plate reader. The remaining samples were frozen at liquid nitrogen temperature and lyophilized. The dried material was digested with Aristar® ultrapure concentrated nitric acid (70%) at 70° C. for one hour. An aliquot of this solution (142 μL) was mixed with molecular biology grade water (2000 μL) and a terbium internal standard (40 μL, 100 ppb). The platinum content was then determined using an Agilent 7900 ICP-MS in helium mode. The concentration of platinum in the cells was normalized to measured protein concentration described above.

[6] = system: cisplatin-resistant A2780CIS human ovarian cancer cell line; assay: Cell growth, resazurin assay, A2780CIS; type: cell-based; conditions: 72-h exposure
Description: as §3

[7] = system: HL60 human leukemia cell line; assay: Cell growth, resazurin assay, HL60; type: cell-based; conditions: 96-h exposure (table title)
Description: as §3

[8] = system: doxorubicin-resistant A2780ADR human ovarian cancer cell line; assay: Cell growth, resazurin assay, A2780ADR; type: cell-based; conditions: 72-h exposure
Description: as §3

[9] = system: MDA-MB-231 human breast adenocarcinoma; assay: Cell growth, resazurin assay, MDA-MB-231; type: cell-based; conditions: 96-h exposure (table title)
Description: as §3

[10] = system: APC−/−; KRASG12D/WT; P53−/−; TdTomato+ (AKP-tdt) organoids; assay: Viability of AKP-tdt murine colorectal cancer organoids, resazurin assay; type: cell-based; conditions: 72-h exposure (table title); read-out: IC50 against AKP-tdt organoids
Description: as §2, §1

[11] = system: OVCAR8-OXR oxaliplatin-resistant human ovarian cancer cell line; assay: Cell growth, resazurin assay, OVCAR8-OXR; conditions: 72-h exposure; for Fold Resistance (IC50, OVCAR8OXR vs OVCAR8): based on IC50 values
Description: Cells were cultured in 10 mL of Advanced DMEM/F12 (ADMEM/F12), supplemented with 5% FBS, 2 mM GlutaMAX, and 1% Penicillin-Streptomycin in 10 cm tissue culture plates. Cells were then plated into 96-well plates with about 2.5×10^3 cells per well. Cells were plated with 200 μL per well of ADMEM/F12 supplemented with 5% FBS, 2 mM GlutaMAX, and 1% Penicillin-Streptomycin. […] The cells were then cultured for 72 hours following drug treatment, and cell growth was measured by resazurin assay.

U2OS human osteosarcoma = assay: Cell growth, resazurin assay, U2OS; type: cell-based; conditions: 96-h exposure (table title); read-out: IC50 U2OS (bone)
Description: as §3

COc1cccc2c1C(=O)c1c(O)c3c(c(O)c1C2=O)CC(O)(C(=O)CO)CC3OC1CC(N)C(N)C(C)O1.O=C1[O][Pt][O]C1=O (stereo not drawn) [DoxPt, Doxaliplatin]
IC50 [1]: 92 nM | IC50 ([2]; 72-h exposure, read-out: IC50 against AKP organoids): 110 nM | Potency relative to oxaliplatin (by IC50) ([2]; AKP organoids): 13 fold | IC50 [3]: 100 nM | Cellular toxicity relative to oxaliplatin [4]: three to ten-fold higher cellular toxicity than oxaliplatin | Platinum concentration in treated cells relative to oxaliplatin-treated cells [5]: approximately ten times higher than in oxaliplatin-treated cells | IC50 [6]: 280 nM | IC90 [6]: 380 nM | IC95 [6]: 410 nM | IC50 [7]: 160 nM | IC50 [8]: 72 nM | IC90 [8]: 490 nM | IC95 [8]: 670 nM | IC50 [9]: 110 nM | IC50 [10]: 430 nM | Fold Resistance (IC50, OVCAR8OXR vs OVCAR8) [11]: 1.0 fold | Fold Resistance (IC50, OVCAR8OXR vs OVCAR8) ([11]; listed as doxaliplatin): no change in the IC50 value | Fold Resistance (IC80, OVCAR8OXR vs OVCAR8) ([11]; based on IC80 values): 0.6 fold | IC50 ([11]; read-out: IC50 OVCAR8OXR): 140 ± 10 nM | IC80 ([11]; read-out: IC80 OVCAR8OXR): 230 ± 10 nM | IC50 (U2OS human osteosarcoma): 52 nM
